The values below come from patent US20260324639A1, “MICROBIOCIDAL PYRAZOLE DERIVATIVES” (SYNGENTA CROP PROTECTION AG, priority 2022, published 2026).

Test [1] has as its system Alternaria solani. The test is described as follows: Alternaria solani/tomato/leaf disc (early blight). The conditions noted are these: 200 ppm; tomato leaf disks cv. Baby; inoculated 2 days after application; assessed 5-7 days after application. The class given is in vivo. On the procedure:
Tomato leaf disks cv. Baby are placed on agar in multiwell plates (24-well format) and sprayed with the formulated test compound diluted in water. The leaf disks are inoculated with a spore suspension of the fungus 2 days after application. The inoculated leaf disks are incubated at 23° C./21° C. (day/night) and 80% rh under a light regime of 12/12 h (light/dark) in a climate cabinet and the activity of a compound is assessed as percent disease control compared to untreated when an appropriate level of disease damage appears on untreated check disk leaf disks (5-7 days after application).

Test [2] has as its system Botryotinia fuckeliana. Briefly: Botryotinia fuckeliana (Botrytis cinerea)/liquid culture (gray mould). Particulars: liquid culture, Vogels broth, 24° C., growth inhibition photometric 3-4 days after application, read-out: control of Botryotinia fuckeliana compared to untreated control. In kind it is cell-based. On the procedure:
Conidia of the fungus from cryogenic storage are directly mixed into nutrient broth (Vogels broth). After placing a (DMSO) solution of test compound into a microtiter plate (96-well format), the nutrient broth containing the fungal spores is added. The test plates are incubated at 24° C. and the inhibition of growth is determined photometrically 3-4 days after application.

In test [3] the test system is Glomerella lagenarium. Briefly: Glomerella lagenarium (Colletotrichum lagenarium)/liquid culture (anthracnose). Particulars: Colletotrichum orbiculare, liquid culture, PDB, 24° C., growth inhibition photometric 3-4 days after application, read-out: control of Glomerella lagenarium compared to untreated control. In kind it is cell-based. On the procedure: Conidia of the fungus from cryogenic storage are directly mixed into nutrient broth (PDB potato dextrose broth). After placing a (DMSO) solution of test compound into a microtiter plate (96-well format), the nutrient broth containing the fungal spores is added. The test plates are incubated at 24° C. and the inhibition of growth is measured photometrically 3-4 days after application.

For test [4], the system named is Blumeria graminis f. sp. tritici. The test is described as follows: Blumeria graminis f. sp. tritici/wheat/leaf disc preventative (powdery mildew on wheat). The class given is in vivo. The conditions noted are these: 200 ppm, wheat leaf segments cv. Kanzler, inoculated 1 day after application, assessed 6-8 days after application. On the procedure:
Wheat leaf segments cv. Kanzler are placed on agar in a multiwell plate (24-well format) and sprayed with the formulated test compound diluted in water. The leaf disks are inoculated by shaking powdery mildew infected plants above the test plates 1 day after application. The inoculated leaf disks are incubated at 20° C. and 60% rh under a light regime of 24 h darkness followed by 12 h light/12 h darkness in a climate chamber and the activity of a compound is assessed as percent disease control compared to untreated when an appropriate level of disease damage appears on untreated check leaf segments (6-8 days after application).

Test [5] has as its system Fusarium culmorum. The test is described as follows: microbe, parasite or virus in culture. In kind it is cell-based. The conditions noted are these: read-out: control of Fusarium culmorum compared to untreated control. On the procedure: Conidia of the fungus from cryogenic storage are directly mixed into nutrient broth (PDB potato dextrose broth). After placing a (DMSO) solution of test compound into a microtiter plate (96-well format), the nutrient broth containing the fungal spores is added. The test plates are incubated at 24° C. and the inhibition of growth is determined photometrically 3-4 days after application.

The test system of test [6] is Phaeosphaeria nodorum. Briefly: Phaeosphaeria nodorum (Septoria nodorum)/wheat/leaf disc preventative (glume blotch). In kind it is in vivo. The conditions noted are these: 200 ppm, wheat leaf segments cv. Kanzler, inoculated 2 days after application, assessed 5-7 days after application. On the procedure: Wheat leaf segments cv. Kanzler are placed on agar in a multiwell plate (24-well format) and sprayed with the formulated test compound diluted in water. The leaf disks are inoculated with a spore suspension of the fungus 2 days after application. The inoculated test leaf disks are incubated at 20° C. and 75% rh under a light regime of 12 h light/12 h darkness in a climate cabinet and the activity of a compound is assessed as percent disease control compared to untreated when an appropriate level of disease damage appears in untreated check leaf disks (5-7 days after application).

The subject of test [7] is Monographella nivalis. Briefly: Monographella nivalis (Microdochium nivale)/liquid culture (foot rot cereals). The class given is cell-based. The conditions noted are these: liquid culture, PDB, 24° C., growth inhibition photometric 4-5 days after application, read-out: control of Monographella nivalis compared to untreated control. On the procedure:
(§1) Conidia of the fungus from cryogenic storage are directly mixed into nutrient broth (PDB potato dextrose broth). After placing a (DMSO) solution of test compound into a microtiter plate (96-well format), the nutrient broth containing the fungal spores is added. The test plates are incubated at 24° C. and the inhibition of growth is determined photometrically 4-5 days after application.

Test [8] has as its system Mycosphaerella arachidis. The test is described as follows: Mycosphaerella arachidis (Cercospora arachidicola)/liquid culture (early leaf spot). In kind it is cell-based. Particulars: liquid culture, PDB, 24° C., growth inhibition photometric 4-5 days after application, read-out: control of Mycosphaerella arachidis compared to untreated control. On the procedure: as §1
The subject of test [9] is Pyrenophora teres. The test is described as follows: Pyrenophora teres/barley/leaf disc preventative (net blotch). Particulars: 200 ppm, barley leaf segments cv. Hasso, inoculated 2 days after application, assessed 5-7 days after application. In kind it is in vivo. On the procedure:
Barley leaf segments cv. Hasso are placed on agar in a multiwell plate (24-well format) and sprayed with the formulated test compound diluted in water. The leaf segments are inoculated with a spore suspension of the fungus 2 days after application. The inoculated leaf segments are incubated at 20° C. and 65% rh under a light regime of 12 h light/12 h darkness in a climate cabinet and the activity of a compound is assessed as disease control compared to untreated when an appropriate level of disease damage appears in untreated check leaf segments (5-7 days after application).

For test [10], the system named is Mycosphaerella graminicola. The test is described as follows: Mycosphaerella graminicola (Septoria tritici)/liquid culture (Septoria blotch). In kind it is cell-based. The conditions noted are these: Zymoseptoria tritici, liquid culture, PDB, 24° C., growth inhibition photometric 4-5 days after application, read-out: control of Mycosphaerella graminicola compared to untreated control. On the procedure: as §1

The subject of test [11] is Puccinia recondita f. sp. tritici. Briefly: Puccinia recondita f. sp. tritici/wheat/leaf disc preventative (brown rust). The class given is in vivo. The conditions noted are these: 200 ppm, inoculated 1 day after application, wheat leaf segments cv. Kanzler, assessed 7-9 days after application. On the procedure:
Wheat leaf segments cv. Kanzler are placed on agar in multiwell plates (24-well format) and sprayed with the formulated test compound diluted in water. The leaf disks are inoculated with a spore suspension of the fungus 1 day after application. The inoculated leaf segments are incubated at 19° C. and 75% rh under a light regime of 12 h light/12 h darkness in a climate cabinet and the activity of a compound is assessed as percent disease control compared to untreated when an appropriate level of disease damage appears in untreated check leaf segments (7-9 days after application).

Some results are limits rather than exact numbers.

Consider `C[C@H]1c2ccccc2[C@@H](c2cnn(C)c2Cl)CN1C(=O)c1cn(-c2ncc(F)cc2F)nn1` (racemic) [Compound P-53, [1-(3,5-difluoro-2-pyridyl)triazol-4-yl]-[rac-(1S,4S)-4-(5-chloro-1-methyl-pyrazol-4-yl)-1-methyl-3,4-dihydro-1H-isoquinolin-2-yl]methanone], for which the “control of Alternaria solani compared to untreated control” value in test [1] is given as “at least 80%”. Besides, the inhibition of growth at 20 ppm in test [2], in test [3], in test [5], in [7], in [8] and in [10] was at least 80% throughout. Also, the “control of Blumeria graminis f. sp. tritici compared to untreated control” value in [4] is “at least 80%”. For the same compound, the “control of Phaeosphaeria nodorum compared to untreated control” value in test [6] is reported as “at least 80%”. Also, the “control of Pyrenophora teres compared to untreated control” value in [9] was “at least 80%”.
As for `COc1ccc2c(c1)[C@@H](c1cnn(C)c1)CN(C(=O)c1nnn(-c3ccccc3)n1)[C@H]2C` (single isomer, unassigned) [Compound P-37], the inhibition of growth at 20 ppm in test [2], in [7], in test [8] and in test [10] was at least 80% each time. Moreover, the “control of Blumeria graminis f. sp. tritici compared to untreated control” value in [4] is reported as “at least 80%”. In addition, the “control of Phaeosphaeria nodorum compared to untreated control” value in [6] is on record as “at least 80%”. In addition, the “control of Puccinia recondita f. sp. tritici compared to untreated control” value in test [11] is recorded as “at least 80%”. In addition, in test [9], the “control of Pyrenophora teres compared to untreated control” value is listed as “at least 80%”.
Take `Cc1c([C@H]2CN(C(=O)c3cn(-c4ncc(F)cc4F)nn3)[C@@H](C)c3ccccc32)cnn1C` [Compound P-43, [1-(3,5-difluoro-2-pyridyl)triazol-4-yl]-[(1S,4S)-4-(1,5-dimethylpyrazol-4-yl)-1-methyl-3,4-dihydro-1H-isoquinolin-2-yl]methanone]: the “control of Alternaria solani compared to untreated control” value in test [1] is “at least 80%”. In addition, the inhibition of growth at 20 ppm in test [2], in test [3], in test [5], in test [7], in test [8] and in [10] was at least 80% each time. Besides, in [4], the “control of Blumeria graminis f. sp. tritici compared to untreated control” value was “at least 80%”. In addition, the “control of Phaeosphaeria nodorum compared to untreated control” value in [6] is listed as “at least 80%”. Also, the “control of Pyrenophora teres compared to untreated control” value in [9] is “at least 80%”.
Consider `C[C@H]1c2ccccc2[C@@H](c2cnn(C)c2Cl)CN1C(=O)c1nnn(-c2ccc(F)cc2F)n1` [Compound P-49, [(1S,4S)-4-(5-chloro-1-methyl-pyrazol-4-yl)-1-methyl-3,4-dihydro-1H-isoquinolin-2-yl]-[2-(2,4-difluorophenyl)tetrazol-5-yl]methanone], for which the “control of Alternaria solani compared to untreated control” value in [1] is reported as “at least 80%”. Also, the inhibition of growth at 20 ppm in test [2], in [3], in test [7], in test [8] and in test [10] was at least 80% in each case. In addition, in test [4], the “control of Blumeria graminis f. sp. tritici compared to untreated control” value is recorded as “at least 80%”. Also, the “control of Phaeosphaeria nodorum compared to untreated control” value in test [6] is on record as “at least 80%”. The “control of Puccinia recondita f. sp. tritici compared to untreated control” value in test [11] is listed as “at least 80%”. In [9], the “control of Pyrenophora teres compared to untreated control” value is given as “at least 80%”.
Turning to `C[C@H]1c2ccccc2[C@@H](c2cnn(C)c2)CN1C(=O)c1cn(-c2ncc(F)cc2F)nn1` [Compound P-51, [1-(3,5-difluoro-2-pyridyl)triazol-4-yl]-[(1S,4S)-1-methyl-4-(1-methylpyrazol-4-yl)-3,4-dihydro-1H-isoquinolin-2-yl]methanone], in test [1], the “control of Alternaria solani compared to untreated control” value is listed as “at least 80%”. The inhibition of growth at 20 ppm in test [2], in test [3], in test [7], in test [8] and in test [10] was at least 80% in each case. Besides, in test [4], the “control of Blumeria graminis f. sp. tritici compared to untreated control” value was “at least 80%”. In addition, the “control of Phaeosphaeria nodorum compared to untreated control” value in test [6] is listed as “at least 80%”. Moreover, the “control of Pyrenophora teres compared to untreated control” value in [9] is given as “at least 80%”.
For the compound `Cc1c(C2CN(C(=O)c3cn(-c4ccc(F)cc4F)nn3)Cc3ccccc32)cnn1C` (centres unmarked) [Compound P-56, [1-(2,4-difluorophenyl)triazol-4-yl]-[4-(1,5-dimethylpyrazol-4-yl)-3,4-dihydro-1H-isoquinolin-2-yl]methanone], in test [1], the “control of Alternaria solani compared to untreated control” value was “at least 80%”. In addition, the inhibition of growth at 20 ppm in test [2], in [3], in [7], in test [8] and in [10] was at least 80% in each case. Besides, the “control of Blumeria graminis f. sp. tritici compared to untreated control” value in test [4] is recorded as “at least 80%”. In addition, the “control of Phaeosphaeria nodorum compared to untreated control” value in test [6] is recorded as “at least 80%”. The “control of Pyrenophora teres compared to untreated control” value in [9] is reported as “at least 80%”.
